Where a name gives a salt, the structure may show the parent alone.
Test system: STING activation (IFNβ release) in iBMDMs
Assay: IFNβ release ELISA after STING ligand (or LPS) stimulation, iBMDMs
Format: cell-based, mouse
Conditions: iBMDMs, 3′3′-cGAMP 10 μg/ml, 16 hours, compound 10 μM
Text: Commercially available enzyme-linked immunosorbent assay (ELISA) kits were used to measure the concentrations of mouse IFNβ (Thermo Fisher Scientific) or human IFNβ (Thermo Fisher Scientific) in culture medium according to the manufacturer's instructions. […]

SMILES	fold increase in IFN-β release	fold increase in IFN-β release (HCl)
O=C(/C=C/c1ccc2ccccc2n1)c1ccncc1 [PFK15]	0.68 fold	–
OCCn1cc(-c2cnc3nnn(Cc4ccc5ncccc5c4)c3n2)cn1 [PF-04217903]	1.49 fold	–
Oc1ncnc2[nH]ncc12 [Allopurinol]	3.15 fold	–
CCOC(=O)c1ccc(N2NC(=O)/C(=C/c3ccc([N+](=O)[O-])o3)C2=O)cc1 [PYR-41]	1.13 fold	–
Nc1cccc2c1CN(C1CCC(=O)NC1=O)C2=O (stereo not drawn) [Lenalidomide (CC-5013), Lenalidomide]	1.09 fold	–
COc1ccc2cccc(CCNC(C)=O)c2c1 [Agomelatine]	0.97 fold	–
O=C(Nc1cccc(Nc2ncc(Br)c(NCCc3cnc[nH]3)n2)c1)N1CCCC1 [BX-912]	1.86 fold	–
Cc1cn(-c2cc(NC(=O)c3ccc(C)c(Nc4nccc(-c5cccnc5)n4)c3)cc(C(F)(F)F)c2)cn1 [Nilotinib (AMN-107), Nilotinib]	0.77 fold	–
NC(=O)c1cccc(-c2cc(Nc3ccc(OC(F)(F)F)cc3)ncn2)c1 [GNF-2]	0.56 fold	–
CC(C)OC(=O)OCOP(=O)(CO[C@H](C)Cn1cnc2c(N)ncnc21)OCOC(=O)OC(C)C [Tenofovir Disoproxil Fumarate]	2.88 fold	–
O=C(NNc1nc2cc(F)ccc2n2cccc12)c1cnccn1 [SC144]	2.63 fold	–
CC(C)c1c(C(=O)Nc2ccccc2)c(-c2ccccc2)c(-c2ccc(F)cc2)n1CC[C@@H](O)C[C@@H](O)CC(=O)[O-].CC(C)c1c(C(=O)Nc2ccccc2)c(-c2ccccc2)c(-c2ccc(F)cc2)n1CC[C@@H](O)C[C@@H](O)CC(=O)[O-].[Ca+2] [Atorvastatin Calcium]	1.45 fold	–
c1cc(-c2cnn3cc(-c4ccc(N5CCNCC5)cc4)cnc23)c2cccnc2c1 [LDN-212854]	0.33 fold	–
C[C@H]1COC2(CCN(c3nc(=O)c4cc(C(F)(F)F)cc([N+](=O)[O-])c4s3)CC2)O1 (racemic) [BTZ043 Racemate]	0.69 fold	–
CC(NC(=O)c1ccccc1/N=C/c1c(O)ccc2ccccc12)c1ccccc1 (stereo not drawn) [Sirtinol]	0.26 fold	–
CN(C)CCOc1ccc(/C(=C(/CCCl)c2ccccc2)c2ccccc2)cc1 [Toremifene Citrate]	0.19 fold	–
Cc1ccc2nc(NC(=O)CSc3nc4c(c(=O)n3-c3ccccc3)SCC4)sc2c1 [IWP-2]	3.84 fold	–
CCC(=O)Nc1cccc(Oc2nc(Nc3ccc(N4CCN(C)CC4)cc3OC)ncc2Cl)c1 [WZ4003]	0.12 fold	–
O=C(O)/C=C/c1ccc(Cn2ccnc2)cc1 [Ozagrel HCl]	–	2.13 fold
COc1ccc(CNCc2cccc3ccccc23)cc1.Cl [ML133 HCl]	0.59 fold	–
O=C(O)CNC(=O)c1c(O)c2ccccc2n(Cc2ccccc2)c1=O [IOX2]	0.44 fold	–
O=C(O[C@H]1C[C@H]2CC[C@@H](C1)[N+]21CCCC1)C(O)(c1ccccc1)c1ccccc1 [Trospium chloride]	0.76 fold	–
C[C@@H]1O[C@@H](O[C@H]2C[C@@H](O)[C@]3(CO)[C@H]4[C@H](O)C[C@]5(C)[C@@H](C6=CC(=O)OC6)CC[C@]5(O)[C@@H]4CC[C@]3(O)C2)[C@H](O)[C@H](O)[C@H]1O [Ouabain]	1.08 fold	–
CC(CCc1ccccc1)NCC(O)c1ccc(O)c(C(N)=O)c1 (stereo not drawn) [Labetalol HCl]	2.96 fold	–
CC(C)(C#N)c1cc(Cn2cncn2)cc(C(C)(C)C#N)c1 [Anastrozole]	0.98 fold	–
CC(=O)Nc1nc2c(Oc3cc(-c4ccc(C(F)(F)F)cc4)ncn3)cccc2s1 [AMG-517]	1.18 fold	–
COc1ccc(C[C@@H](C)NC[C@H](O)c2ccc(O)c(NC=O)c2)cc1.COc1ccc(C[C@@H](C)NC[C@H](O)c2ccc(O)c(NC=O)c2)cc1.O=C(O)/C=C/C(=O)O [Formoterol Hemifumarate]	1.76 fold	–
